Assay results: ChEMBL document CHEMBL3507680, “University of Dundee, Gates Library screen for HepG2 cell viability”

Test: Human HepG2 cell viability assay in 384 well format
Assay type: toxicity, cell-based
Parameters: dose 125 nL, time 70.5 hour; cytotoxicity at 70.5 h: concentration not given beside the values
Conditions: HepG2 cells, read-out: Inhibition

| SMILES | cytotoxicity at 70.5 h [%] |
| --- | --- |
| C[C@]1(O)CN(CC(=O)N2CCCC2)CC[C@@H]1Oc1cccc(F)c1 | 17.5 |
| CC(C)c1nccn1-c1cccc(C2CCCN(S(=O)(=O)N(C)C)C2)n1 (stereo not given) | -3.37 |
| O=C(c1cnccn1)N1CCCC(Cc2cccc3ncccc23)C1 (stereo not given) | -4.96 |
| CNc1ccc(CC2CCCN(C(=O)c3cnco3)C2)nn1 (stereo not given) | -9.21 |
| O=C(c1cnccn1)N1CCCC(c2cccc(-n3ccnc3)n2)C1 (stereo not given) | 11.1 |
| OCCC1(NCc2ccc(-n3cccn3)cc2)CCOCC1 | -2.65 |
| O=C(O)c1ccn(-c2ccc(NC(=O)c3ccccc3Cl)cc2)n1 | 11.9 |
| CCC(c1ccc(F)cc1F)S(=O)(=O)CCO (stereo not given) | -1.73 |
| CCC(c1ccccc1)S(=O)(=O)CCO (stereo not given) | -2.1 |
| CN1CCN(CCNC(=O)c2sccc2C2CC2)CC1 | -2.66 |
| CN(Cc1ccc(F)cc1)Cc1cc2c(cc1Br)OCCO2 | -8.04 |
| CC(C)(C)NC(=O)CN1CCCNCC1 | -0.58 |
| CN(Cc1ccccc1F)Cc1cc2c(cc1Br)OCCO2 | -9.57 |
| Cn1ccnc1CN1CCCC1CCc1ccccc1 (stereo not given) | 2.44 |
| Cc1csc(C(C)(C)NCCOc2ccc(CC#N)cc2)n1 | -0.219 |
| Cc1cnn(CCNCC(=O)N2CCN(c3ccccn3)CC2)c1 | 8.76 |
| CS(=O)(=O)c1ccc(NC(=O)NCCC2=CCCCC2)cc1 | -10.3 |
| COCc1ccccc1NC(=O)CCNC(=O)c1ccoc1 | -13.1 |
| CN(CCc1ccccn1)C(=O)Nc1cccnc1-n1cccn1 | -16.2 |
| FC(F)(F)c1nc(NC2CCc3ncnn3C2)c2ccccc2n1 (stereo not given) | 24.8 |
| COC(=O)C1CCN(C(=O)Cn2ccc(-c3ccc(F)cc3)n2)CC1 | -8.67 |
| O=C(Cn1ccc(-c2ccccc2)n1)N1CCN(C(=O)C2CC2)CC1 | -2.62 |
| Cc1cnn(CCNCC(=O)N2CCN(c3ncccn3)CC2)c1 | -4.23 |
| Cc1sc2ccccc2c1S(=O)(=O)NCCNC(=O)C(C)C | -7.05 |

| SMILES | cytotoxicity at 70.5 h [%] |
| --- | --- |
| COCc1c(Cl)cccc1NC(=O)CNC(=O)C(C)(C)C | -4.66 |
| CCc1cccnc1NCc1cnc(N2CCOCC2)nc1 | 20.6 |
| CCOCCC(=O)Nc1cccc(Cl)c1COC | -2.76 |
| COc1cccc(CC2CCCN2Cc2nccn2C)c1 (stereo not given) | -5 |
| CC(NC(=O)N1CCCN(CC(F)F)CC1)c1ccco1 (stereo not given) | -8.42 |
| CCOCCC(=O)N1CCCC(c2cc(C(F)(F)F)[nH]n2)C1 (stereo not given) | -10.6 |
| CC(CNC(=O)c1ccco1)N1CCc2sccc2C1 (stereo not given) | -4.45 |
| Cc1nn(C)c2ncc(C(=O)N3CCNC(=O)C3)cc12 | -3.66 |
| CC(=O)N(C)CC(=O)NC(C)c1ccc(OCCC(C)C)cc1 (stereo not given) | -3.81 |
| Cc1nn(C)c2ncc(NC(=O)N3CCNC(=O)C3)cc12 | -6.74 |
| CC(C)CCOc1ccc(C(C)NC(=O)CSCC(N)=O)cc1 (stereo not given) | -8.07 |
| CC(C)OCCC(=O)NCC(c1c(F)cccc1F)N(C)C (stereo not given) | 22.3 |
| CC(C)CC(=O)NCC(O)c1c(F)cccc1F (stereo not given) | -7.25 |
| CNC(=O)CCN(C)CC1(c2ccc(Br)cc2)CC1 | -0.48 |
| COCC(O)CNC(=O)Nc1ccc(Cl)cc1-n1cccc1 (stereo not given) | -7.23 |
| Cn1cc(CCC(=O)NC(c2ccc(F)cc2)C(F)(F)F)cn1 (stereo not given) | -8.97 |
| CCc1cnc(COc2ccc(OC3CCCCNC3=O)cc2)o1 (stereo not given) | -4.27 |
| CNC(=O)CN(C)CC1(c2ccc(Br)cc2)CC1 | 0.137 |
| CN1CCC(NC(=O)Nc2cnn(-c3ccccc3Cl)c2)CC1 | -5.23 |
| Cc1ccc(CNC(=O)COc2ccc3c(c2)OCC3O)cc1 (stereo not given) | -7.79 |
| COCCNc1nnc(S(=O)(=O)CCC(C)(C)C#N)s1 | -5.9 |
| Cc1ccc(C(=O)N2CCOCC2C(N)=O)c(F)c1 (stereo not given) | -8.13 |
| O=C(CCn1cnc2ccccc21)N1CCN2CCCCC2C1 (stereo not given) | 27.2 |
| Cn1cc(S(=O)(=O)NCC(C)(O)c2ccsc2)cn1 (stereo not given) | 1.13 |

| SMILES | cytotoxicity at 70.5 h [%] |
| --- | --- |
| NC(=O)CSCCC(=O)NCC1CC1 | 3.32 |
| CC(C)S(=O)(=O)C(C)C(=O)NCc1ccccc1OCc1ccccc1 (stereo not given) | -1.68 |
| CC(C)S(=O)(=O)C(C)C(=O)NCc1ccccc1COc1ccccc1 (stereo not given) | -11 |
| O=C1CCN(C(=O)CCc2ccc(Cl)cc2Cl)CCN1 | -6.13 |
| CC(=O)NCCNC(=O)NCC1Cc2ccccc2O1 (stereo not given) | -4.29 |
| c1cc2c(cc1CN1CCN(Cc3noc(C4CC4)n3)CC1)OCO2 | -2.86 |
| O=c1n(CCNCc2ccc(-c3ccccc3)cc2)nc2ccccn12 | -8.68 |
| O=C(NCC1CC(=O)N(CCc2ccccc2)C1)c1c(F)cccc1F (stereo not given) | 3.42 |
| Cn1cccc1C(=O)OCCNC(=O)c1ccccc1 | -10.7 |
| O=C(NCC1CC(=O)N(CCc2ccccc2)C1)c1ccon1 (stereo not given) | -3.55 |
| Cc1ccc(NC2CCN(C(=O)CCCc3ccccn3)CC2)cc1 | -8.59 |
| Cc1cc(CN(C)C(=O)NCc2ccnc(SC(C)(C)C)c2)no1 | -9.52 |
| CC(C)c1noc(CCC(=O)N2CCCC(n3ccnc3)C2)n1 (stereo not given) | -5.4 |
| Cc1nnc(C(C)Nc2cccc(COCCOC(C)C)c2)o1 (stereo not given) | -1.57 |
| CC(NC(=O)N1CCc2sccc2C1)c1nncn1C (stereo not given) | -5.43 |
| O=C(c1ccc(-n2ccnc2)cc1)N1CCCC1 | 34.6 |
| CC(NC(=O)N1CCc2ccccc2C1)c1nncn1C (stereo not given) | -13.5 |
| O=C(Nc1cccnc1-n1cncn1)C1CCC1 | -22.6 |
| Cc1ncc(C(=O)NCCNc2ncnc3sccc23)s1 | -2.99 |
| CN(C)c1ccc(C(=O)N2CCCC2c2ccc(Cl)cc2)nn1 (stereo not given) | -11.3 |
| CCOCC(=O)Nc1ccc(-n2ccc(C(N)=O)n2)cc1 | -5.89 |
| Cc1nnc(C(C)Nc2cccc(COCC(F)(F)C(F)F)c2)o1 (stereo not given) | 24.9 |
| O=C(c1ccc(O)nc1)N1CCc2ccc(O)cc2C1 | -13 |
| CCC(C)(CC(=O)OC)NC(=O)c1ccc(C(C)=O)cc1 (stereo not given) | 23.7 |

| SMILES | cytotoxicity at 70.5 h [%] |
| --- | --- |
| Cc1cc(CC(=O)NCC(O)COc2ccc(F)c(F)c2)no1 (stereo not given) | -12 |
| CCC(C)(CC(=O)OC)NC(=O)c1ccc2[nH]ccc2c1 (stereo not given) | -10.1 |
| CCC(C)(CC(=O)OC)NC(=O)c1cccc(F)c1F (stereo not given) | -14.7 |
| CC(=O)NCCCSC1CCN(c2ccccc2F)C1=O (stereo not given) | -11.5 |
| CC(=O)NCCCSC1CCCN(c2ccccc2Cl)C1=O (stereo not given) | -15.3 |
| Cn1cc(C(=O)CC2CCCN2C(=O)c2ccn3ccnc3c2)cn1 (stereo not given) | -10.3 |
| CCc1nc(C2CCCN(C(=O)c3c[nH]c(C(C)C)n3)C2)no1 (stereo not given) | -10.9 |
| COc1cccc(CCCN2CCC(N(C)S(C)(=O)=O)CC2)c1 | 4.63 |
| Cc1c(NCc2ccccc2C#N)cccc1S(=O)(=O)NC1CC1 | 5.79 |
| O=C(CN1CCS(=O)(=O)CC1)NC1CCOc2ccccc21 (stereo not given) | -3.04 |
| CS(=O)(=O)Nc1cccc(CNC(=O)CCc2ccsc2)c1 | -1.95 |
| O=C(Cn1cc(Cl)cn1)Nc1ccc2c(c1)OCCCO2 | 25.9 |
| CCNC(=O)C1CCCN(c2cccc(C(F)(F)F)n2)C1 (stereo not given) | 21.5 |
| CC(C(=O)N1CCN(c2ccc(F)cc2)CC1)n1ccnc1 (stereo not given) | -3.73 |
| O=C(CCn1ccc2ccccc21)N1CCC(Nc2cccnc2)CC1 | -1.56 |
| COC1CCN(C(=O)Cn2nc(C)cc2C)CC1 | -3.13 |
| O=C(NCC1CC1)C1CCCN(c2cccc(C(F)(F)F)n2)C1 (stereo not given) | 19.6 |
| Cc1nc(CCNc2ccc(-c3nc(C)c(C)c(=O)[nH]3)cn2)cs1 | -1.37 |
| CCCc1cc(C(=O)NCCCC(=O)N2Cc3ccccc3C2)[nH]n1 | -6.02 |
| CS(=O)(=O)Cc1ccccc1NCc1cc(Cl)ccc1Cl | 3.86 |
| COCC1CCN(CCCc2cccc(OC)c2)CC1 | 30.7 |
| Clc1cccc(N2CCC(NCc3ncc[nH]3)C2)c1 (stereo not given) | 0.765 |
| CCc1cc(CNC(=O)N(C2CC2)C(C)c2ccco2)on1 (stereo not given) | 23.3 |
| Cn1c(C2CC2)nc2cc(NC(=O)C3CC=CC3)ccc21 | -5.03 |

| SMILES | cytotoxicity at 70.5 h [%] |
| --- | --- |
| Cc1cc(NC(=O)NCCc2cscn2)nn1C | -4.59 |
| CC(C)c1n[nH]c(C2CN(Cc3ccno3)CCO2)n1 (stereo not given) | 0.21 |
| CCc1cc(CNC(=O)N(C2CC2)C(C)c2ccco2)[nH]n1 (stereo not given) | -5.28 |
| O=C(CCn1ccc2ccccc21)N1CCN(Cc2cccnc2)CC1 | 17.7 |
| CCCC(=O)N(C)c1cccc2ncccc12 | -1.87 |
| Cc1ccnc(C(NC(=O)c2ccc(O)nc2C)C2CC2)n1 (stereo not given) | 16.3 |
| NC(=O)CN(CC1CCOC1)C1CC1 (stereo not given) | -2.08 |
| CN(c1ccc(CNC(=O)c2ccc(O)nc2)cc1)C1CCCCC1 | 0.503 |
| CN(CC(=O)Nc1ccccc1C(=O)NC1CC1)Cc1ccccc1Cl | 0.515 |
| COc1cc(C2(C(=O)NC3CCN(CC4CC4)CC3)CC2)ccc1C | -6 |
| O=C(CCc1ccc2c(c1)OCO2)Nc1cccnc1-n1cncn1 | -2.15 |
| Cn1ccc(C(=O)N2CCOC(c3ccccc3)C2)cc1=O (stereo not given) | -7.42 |
| N#Cc1cccnc1N1CCCN(C(=O)CCc2cccs2)CC1 | -4.16 |
| COc1cc(C2(C(=O)NC3CCN(C4CC4)CC3)CC2)ccc1C | -4.2 |
| Cn1ccc2c(C(=O)NCCCS(C)(=O)=O)cccc21 | 5.4 |
| O=C(Nc1ccc(Cl)cn1)C1CCN(CCc2ccccn2)CC1 | -1.68 |
| CC(C)(C)NC(=O)Cn1nc(C2CC2)cc(C(F)(F)F)c1=O | -1.18 |
| O=C(Nc1ccc(Cl)cn1)C1CCCN(CCc2ccccn2)C1 (stereo not given) | 14.5 |
| CN1CCCN(c2nc(C3CC3)ns2)CC1 | -3.92 |
| Cc1nc(C)n(CC2CN(CCc3ccccn3)CCO2)n1 (stereo not given) | -7.39 |
| COc1ccc(-c2n[nH]cc2CNC2CCN(C3CC3)CC2)cc1 | -2.67 |
| CC(C)C(N)CNS(=O)(=O)Cc1cccc2cccnc12 (stereo not given) | -7.49 |
| NC(CNS(=O)(=O)Cc1cccc2cccnc12)c1ccccc1 (stereo not given) | 28.4 |
| NC(=O)C(c1ccc(F)cc1)N1CCN(CCO)CC1 (stereo not given) | -6.75 |
